Results published in US20240325375A1, “Effect of YEL002 on Psychological and Psychiatric Factors in Health and Disease” (RadMit, Inc., priority 2023, published 2024).

Key:
[1] = Case studies and patient testimonials; format: in vivo, human
[2] = test system: Covid virus; format: in vivo; details: compared with without YEL002
[3] = test system: ATM-deficient mice; test: Lifespan of ATM-deficient mice injected weekly; format: in vivo; details: ATM-deficient mice injected every week during most of their lifespans
Source text: It is speculated that this is because the primary screen applied was against radiation-induced toxicity as well as genotoxicity which causes cancer. Researchers involved in other labs were screening only against radiation-induced toxicity and thereby cells with genotoxicity survive and cause even more cancer and late effects of which surviving mice died. In our experiments, however, a screen against radiation induced toxicity as well as genetic instability made sure that the surviving cells also had no genetic instability which otherwise would have led to an increase in cancer and other diseases. In the experiment, ATM-deficient mice injected every week with YEL002 during most of their lifespans lived 33% longer than without injections.

[4] = PHQ-9 assessment of a patient with recalcitrant depression; format: in vivo, human
Protocol: If they work at all, improvements take at least 4 weeks and may increase patient weight. In this patient's assessment using a standard PHQ-9 form, the patient was assessed before and after treatment with YEL002. The PHQ-9 form assigns a numerical value corresponding to the level of depression, meaning a higher level means increased depression values. In this patient, before treatment, the values was in 3 different instances 6, 9 and 15 with designation of “very difficult” and “extremely difficult” and they cried 3 times during 30 minutes of our interview and said they hate the world. Before the test indicates mild depression to moderately severe depression. […] Since there is no lower designation this indicates no depression. This is also called snapping out of depression, which was a technical term in the past because it was not observed before now.

[5] = Solubility of the powder; format: physicochemical; details: off-white powder
Protocol: The compound takes the appearance of an off-white powder and is fat soluble. One takes an eighth teaspoon or about 0.5 g dissolved in a couple of teaspoons of oil. In an exemplary embodiment, it is dissolved in grape seed or any other appropriate oil and taken twice a day, once in the morning and once in the evening. It is easy to use and has almost no taste.

[6] = test system: lymphoma; test: Lymphoma incidence in mice (National Institute of Health experiment); format: in vivo; details: radiation exposure caused 90% to develop lymphoma without treatment
Protocol: In another experiment at the National Institute of Health, in other mice after radiation exposure which caused 90% of them to develop lymphoma, there was a reduction of the lymphoma incidence to 40% and the spontaneous frequency was reduced from 10-20% down to 0%. […] This was observed after treating mice right after birth, if humans are treated later in life it is possible that only 10 or 5 years are added and probably more for DNA repair deficient diseases like ataxia telangiectasia (ATM) which is still very substantial, especially, since it treats and reduces the likelihood of many diseases.

[7] = test system: human keratinocytes; test: Proteomics study of protein induction; format: cell-based
Source text: In terms of mechanism of action in a proteomics study, the chemical was capable of inducing 244 different proteins in human keratinocytes, which comprised anti-inflammatory proteins, DNA repair proteins, and 9 neuroprotective proteins. It is known that turtles at the Galapagos Islands live 150 or more years without cancer and have multiple copies of DNA repair genes and anti-inflammatory genes. The compound boosts the expression of these genes in mammals. Since it induces DNA repair and is anti-inflammatory, it may be possible to prevent and cure many diseases and extend the life.
A direct effect of YEL002 on the autonomic or sympathetic nervous system, the flight or fight response, which can explain all the effects that we find.

[8] = Side effects and blood thinning; format: in vivo
Protocol: Thus, if nose bleeding occurs at that dose when blowing one's nose, one should reduce the dose to half and nose bleeding will stop within about 12 hours or less. Once the flue or sneezing is gone one may increase the dose again.
(§1) It is also observed that three different cancer cell lines were not protected from radiation killing by YEL002, which indicates a use in radiation oncology or chemotherapy where the tumor can still be killed by the radiation, or chemotherapy but YEL002 protects the rest of the body from radiation or chemotherapy damage, and inhibits secondary carcinogenesis.

[9] = test system: irradiated mice; test: Radiation mitigation in mice irradiated with an LD100; format: in vivo
[10] = Clinical trial on psychological, psychiatric and memory loss endpoints; format: in vivo, human
Source text: 7 less argumentative, 10 less angry or aggressive. 8 experienced better quality sleep. 8 needed less sleep and 5 became nicer. It gets rid of addictions and reduces symptoms of depression and Alzheimer's disease.

[11] = test system: three different cancer cell lines; test: Radiation killing of cancer cell lines; format: cell-based
Source text: as §1

[12] = Effects on pets (cats); format: in vivo; details: cats after treatment
Protocol: Effects on pets. My cats, Susie and Celine were the sweetest cats before I started to treat them. But after treatment they are now even sweeter, cuddlier and more attached to me, and sleep 2 hours longer per day. I call them lap cats now like the dog pendant. They lost loofiness, shyness to new visitors, quietly sit next to each other and licking each other or me and just want to sit close to me or on my lap and be petted. Before after 5 to 10 minutes of petting they just left and did something else. Now they stay for hours and the only reason for them to leave is when I stop petting them. And they are even better at play and jump exactly, landing where they intend to, don't bump into things and catch the toys the first time every time.

[13] = heavy smoker, one week after treatment
[14] = subject on chemotherapy, one week on YEL002

COc1ccc2cc(-c3nc4ccc(C)cn4c3NCc3ccco3)c(=O)[nH]c2c1 [YEL002]
memory of patient with Alzheimer's disease ([1]; after 4 weeks treatment): improved
cholesterol ([1]; after two days of treatment): normal
symptoms of coughing and diarrhea ([1]; case study, used for eight weeks): reduced symptoms of coughing and diarrhea
allergic attacks such as sneezing and runny nose ([1]; dissolved in oil, nose spray 2-4 times a day): completely prevented
hair loss [1, 13]: completely stopped
smoker's legs oozing lymph liquid [1, 13]: completely healed
astigmatism fixed ([1]; in only 4 weeks): 1
eye-sight deficiency fixed ([1]; in only 4 weeks): 2 diopters
coughing and wheezing symptoms post-chemotherapy ([1]; one hour after treatment): completely alleviated
blood ([1]; patient testimonial): thinner
major arguments with spouse ([1]; patient with long COVID19 and diabetes, 5-10 before treatment): 0-1 per day
memory of another person ([1]; remembers where they left their car): much improved
vomiting under chemotherapy [1, 14]: completely stopped
weight gained [1, 14]: 2 kg
levels of liver damage ([1]; twice elevated for 25 years, after two days of treatment): normal and below the cutoff
alcohol addiction ([1]; two alcoholics): completely cured
periodontics or receding gums ([1]; user study): healed
clearance of Covid virus [2]: cleared faster
lived longer than without injections [3]: 33%
PHQ-9 value after treatment ([4]; after one week on YEL002, the following two weeks, before treatment 6, 9 and 15): 3
PHQ-9 difficulty designation after treatment ([4]; before treatment very difficult and extremely difficult): somewhat difficult
recalcitrant depression outcome ([4]; person with depression for 20 years, within one week): completely cured
solubility [5]: fat soluble
lymphoma incidence after radiation exposure [6]: 40%
number of different proteins induced ([7]; human keratinocytes, anti-inflammatory, DNA repair and neuroprotective proteins): 244 proteins
number of neuroprotective proteins/functions induced ([7]; proteomics): 9
blood-thinning; nose bleeding at the dose ([8]; about 1 gram per day, nose bleeding stops within about 12 hours or less at half dose): blood-thinning properties
side effects ([8]; in vivo): no side effects
survival of irradiated mice ([9]; LD100 radiation, IP injection 24 hours after radiation and another four doses in 24 hours intervals, without it 100% died after 10 to 15 days): 100%
life span of surviving irradiated mice ([9]; many of the surviving mice, normal life span): more than 2 years
became nicer [10]: 5 people
experienced better quality sleep [10]: 8 people
felt more energetic [10]: 10 people
less angry or aggressive [10]: 10 people
less argumentative [10]: 7 people
less combative [10]: 7 people
less tired [10]: 5 people
needed less sleep [10]: 8 people
protection of cancer cell lines from radiation killing [11]: not protected
cats sleep longer [12]: 2 hours per day
